Assay results as given in US20260240765A1, “RIFAMYCIN-QUINOLIZINONE COUPLED MOLECULE OINTMENT AND METHOD FOR PREPARING SAME” (Tennor Therapeutics (Zhongshan) Limited, priority 2022, published 2026).

How the values were obtained:
[1] = Saturation solubility of API in ointment bases; format: physicochemical
Description: (§1) Experimental steps: About 340 mg of API was added gradually and slowly to about 5 g of PEG400 (in a water bath at 40° C.), and the mixture was dissolved by magnetic stirring. The orange-red mixture was gradually viscous and could no longer be stirred. About 7 g of PEG400 was added gradually and stirred for another 20 min. The resulting mixture was divided into two portions, one portion was maintained in a water bath at 40° C., and the other portion was cooled to room temperature. Both portions were filtered through a PES water membrane (13 mm, 0.45 μm), and the filtrates were collected for content analysis.
as §1, with “About 400” for “Experimental steps: About 340”, “About 400 mg of” for “steps: About 340 mg of”, “g of propylene glycol (in a” for “g of PEG400 (in a”, “mixture was stirred for dissolution. The orange-red” for “mixture was dissolved by magnetic stirring. The orange-red”

[2] = cited from earlier work

`CO[C@H]1/C=C/O[C@@]2(C)Oc3c(C)c(O)c4c(O)c(c(/C=N/N5CCC(N(C)C6([C@@H]7CCN(c8c(F)cn9c(=O)c(C(=O)O)cc(C%10CC%10)c9c8C)C7)CC6)CC5)c(O)c4c3C2=O)NC(=O)/C(C)=C\C=C\[C@H](C)[C@H](O)[C@@H](C)[C@@H](O)[C@@H](C)[C@H](OC(C)=O)[C@@H]1C` [API, rifamycin-quinolizinone coupling molecule] gave a Saturation solubility ([1]; in PEG400, 40° C.) of 23.79 mg/g, a Saturation solubility ([1]; in PEG400, room temperature) of 5.80 mg/g and a Saturation solubility ([1]; in propylene glycol, 40° C.) of 0.65 mg/g. For the same molecule, the Saturation solubility ([1]; in propylene glycol, room temperature) was 0.15 mg/g, the “Solubility in dichloromethane, polyethylene glycol 400, and dimethyl sulfoxide” value [2] was “soluble” and the “Solubility in ethanol, methanol, and diethyl ether” value [2] was “almost insoluble”. For the same molecule, the Water solubility [2] was “low”, the “Oxidation on exposure to air” value ([2]; phenol form converts to quinone form) was “easily to be oxidized” and the “pH of maximum water solubility” value ([2]; water solubility is pH-dependent, relatively low at low pH) was 10.
